The test system of data set [1] is P. falciparum strain 3D7-Netherlands. The data set is described as follows: In vitro IC50, 3H-hypoxanthine incorporation, P. falciparum 3D7. Format: cell-based, Plasmodium falciparum. The conditions noted are these: for IC50: Plasmodium falciparum; for in vitro activity in words: compared with compound 1.
The subject of data set [2] is Plasmodium falciparum strain K1. Nature of the data set: In vitro IC50, 3H-hypoxanthine incorporation, P. falciparum K1. Format: cell-based. The conditions noted are these: chloroquine-resistant Plasmodium falciparum strain K1.
The next data set deals with L929. The data set is described as follows: Antiproliferative activity L929. Format: cell-based. Particulars: Mus musculus, read-out: IC50 [μg/ml] Antiproliferative activity L929.
A further data set deals with K562. Nature of the data set: Antiproliferative activity K562. The conditions noted are these: Homo sapiens, read-out: IC50 [μg/ml] Antiproliferative activity K562. Format: cell-based.
The test system of data set [3] is Plasmodium berghei GFP MRA-865. The data set is described as follows: Plasmodium berghei infection in the mouse model (in vivo). Particulars: for life span in words: all dosages and routes of administration tested; for Activity (%): parasitemia day 4 vs untreated controls.
A short description of the next data set: Cytotoxicity HeLa. The conditions noted are these: human, HeLa cells.
Another data set deals with adult S. mansoni. Nature of the data set: In vitro treatment of adult S. mansoni couples, visual evaluation by microscope. Details: species or system Schistosoma mansoni. How it is done: Compounds 2, 18 and 41 were tested by Prof. Dr. Grevelding, Parasitology, Veterinary Medicine, University of Gieβen, also in the parasite Schistosoma mansoni. […] Each test was performed with 3 groups of 10 worms each. Remarkable was that different effects on the worms with respect to morphological alterations could be observed. […] Exemplarily shown in FIGS. 1 and 2 is an image of a control assay and an image of trematodes after 48 hours of incubation with compound 18.
Each one of the three groups (one group per well) comprised 10 pairs of adult S. mansoni were incubated with the substance to be tested for 24 h. As control served three groups which were incubated with medium (M199) and three groups which were incubated with medium and DMSO as solvent of the test substances. Evaluation was done visually using a microscope.
In a second experimental setting, again three groups each (one group per well) with 8 pairs of adult S. mansoni each were incubated with the compound to be tested, however for 48 h in this experiment. As control served three groups which were either incubated with medium (M199) or medium and DMSO as solvent of the test substances. Evaluation was done visually using a microscope.

Data set [4] deals with Trypanosoma brucei brucei S427. Nature of the data set: In vitro efficacy against Trypanosoma brucei. Format: cell-based. The method, then:
Compounds 18 and 41 were assessed at the London School of Hygiene and Tropical Medicine in vitro with respect to their efficacy against the parasite Trypanosoma brucei brucei […].

Where [5] appears, read: P. falciparum strain 3D7, read-out: IC50 [nM] P.f.(3D7).
[6] abbreviates: P. falciparum strain 3D7, read-out: IC50 [ng/ml] P.f.(3D7).
Setting [7] is: 3D7, read-out: IC50 [ng/ml] P.f.(3D7).
Where [8] appears, read: 24 hours, 100 μM, 3 groups of 10 pairs.
[9] abbreviates: 48 hours, 20 μM, 3 groups of 8 pairs.
The mark [10] stands for this setting: 48 hours, 100 μM, 3 groups of 8 pairs.

Values after ≈ are worked out from the molar mass of the structure shown. Values joined by “and” are separate entries in the source; they are usually repeats but may differ in a detail not shown here. Identical values can stand only once. “Also recorded” adds a separate entry of the source. Like-named read-outs stand apart in the source and are kept apart here.

As for `COc1ccc2c(c1)CCC1C2CC[C@@]2(C)C1CC[C@@H]2NCc1ccccc1O` (stereo partly drawn) [Compound 1, 17β-(2-Hydroxyphenyl-methylamino)-3-methoxy-estra-1,3,5(10)-triene], the IC50 is 50 nM in data set [1] (setting [5]); 19.8 ng/mL in data set [1] (setting [6]); 73 nM in data set [2]; 2.2 µg/mL (≈ 5.62 µM) in the data set on L929; 0.8 µg/mL (≈ 2.04 µM) with K562; 11 µM and 4.3 µg/mL in the data set “Cytotoxicity HeLa”. Besides, in data set [3], the “life span in words” value is recorded as “considerably extended the life span”. Further, the “MSD (days)” value in data set [3] (oral 3 × 100 mg/kg) is on record as 16.3 (n = 3) days; in data set [3] (sc 3 × 10 mg/kg) it was 10.2 (n = 3) days; in data set [3] (sc 3 × 30 mg/kg) it was 15 (n = 3) days. The “Activity (%)” value in data set [3] (oral 3 × 100 mg/kg) is 99%; in data set [3] (sc 3 × 10 mg/kg), 47%; in data set [3] (sc 3 × 30 mg/kg), 94%.

With `COc1ccc2c(c1)CCC1C2CC[C@@]2(C)C1CC[C@H]2NCc1ccccc1O` (stereo partly drawn) [Compound 2, 17α-(2-Hydroxyphenyl-methylamino)-3-methoxy-estra-1,3,5(10)-triene], the IC50 in data set [1] (setting [7]) was found to be 2.9 ng/mL; in data set [1] (setting [5]), 7.4 nM; in the data set on L929, 1.9 µg/mL (≈ 4.85 µM); with K562, 0.5 µg/mL (≈ 1.28 µM); in the data set “Cytotoxicity HeLa” it was 3.1 µg/mL (≈ 7.92 µM). For the same molecule, the “life span in words” value in data set [3] is “considerably extended the life span”. In addition, the “MSD (days)” value is reported as 8.7 (n = 3) days in data set [3] (oral 3 × 10 mg/kg); 13 (n = 3) days in data set [3] (oral 3 × 30 mg/kg); 15.33 (n = 3) days in data set [3] (oral 3 × 100 mg/kg); 7 (n = 3) days in data set [3] (sc 3 × 10 mg/kg); 14 (n = 3) days in data set [3] (sc 3 × 30 mg/kg). The “Activity (%)” value in data set [3] (oral 3 × 10 mg/kg) is listed as 46.8%; in data set [3] (oral 3 × 30 mg/kg), 99.4%; in data set [3] (oral 3 × 100 mg/kg) it was 99.7%; in data set [3] (sc 3 × 10 mg/kg), 17.7%; in data set [3] (sc 3 × 30 mg/kg) it was 61.8%. Besides, in the data set with adult S. mansoni, the “morphological alterations of the worms” value is listed as “ventrally curved in a cork-screw like manner”. The egg production entry in the data set on adult S. mansoni (24 hours, 100 μM) was “Almost no eggs were detectable”; in the data set on adult S. mansoni (48 hours, 20 μM) it was “No eggs were detectable”; in the data set with adult S. mansoni (48 hours, 100 μM), “No eggs were detectable”. Further, the motility / vitality entry in the data set with adult S. mansoni (24 hours, 100 μM) is “Trematodes moved only slightly and with twitching movements”; with adult S. mansoni (48 hours, 20 μM), “The trematodes barely moved”; in the data set on adult S. mansoni (48 hours, 100 μM) it was “All trematodes were dead”. Moreover, the couples detectable entry with adult S. mansoni (setting [8]) is listed as “in two of the groups each one couple was detected”; with adult S. mansoni (setting [9]), “no couples could be observed in any of the groups”; with adult S. mansoni (setting [10]) it was “no couples could be observed in any of the groups”.

Regarding `COc1ccc2c(c1)CCC1C2CC[C@]2(C)C[C@@H](NCc3ccccc3O)CC12` (stereo partly drawn) [Compound 3, 16β-(2-Hydroxyphenyl-methylamino)-3-methoxy-estra-1,3,5(10)-triene], the IC50 in data set [1] (setting [5]) was determined as 62 nM; in data set [1] (setting [6]), 24.5 ng/mL; with L929, 1.9 µg/mL (≈ 4.85 µM); in the data set with K562, 0.7 µg/mL (≈ 1.79 µM); in the data set “Cytotoxicity HeLa” it was 4.4 µg/mL (≈ 11.2 µM). In data set [1], the “in vitro activity in words” value is “comparable activity”.

For `COc1ccc2c(c1)CCC1C2CC[C@]2(C)C[C@H](NCc3ccccc3O)CC12` (stereo partly drawn) [Compound 4, 16α-(2-Hydroxyphenyl-methylamino)-3-methoxy-estra-1,3,5(10)-triene], the IC50 in data set [1] (setting [5]) was determined as 41.5 nM; in data set [1] (setting [6]) it was 16.4 ng/mL; in the data set on L929, 1.6 µg/mL (≈ 4.09 µM); in the data set with K562 it was 1.3 µg/mL (≈ 3.32 µM); in the data set “Cytotoxicity HeLa” it was 4.7 µg/mL (≈ 12 µM). Moreover, in data set [1], the “in vitro activity in words” value is “comparable activity”.

On to `COc1ccc2c(c1)CCC1C2CC[C@@]2(C)C1CC[C@@H]2NCc1cc2ccccc2cc1O` (stereo partly drawn) [Compound 18, 17β-[(3-Hydroxynaphth-2-yl)-methylamino]-3-methoxy-estra-1,3,5(10)-triene], for which the IC50 in data set [1] (setting [7]) is 3.1 ng/mL; in data set [1] (setting [5]), 7 nM; in data set [4] it was 930 nM. Also, the “morphological alterations of the worms” value in the data set on adult S. mansoni is “ventral bending”. Besides, the egg production result with adult S. mansoni (24 hours, 20 μM) was “Almost no eggs were detectable”; with adult S. mansoni (24 hours, 100 μM), “Almost no eggs were detectable”; with adult S. mansoni (48 hours, 20 μM), “No eggs were detectable”; with adult S. mansoni (48 hours, 100 μM), “No eggs were detectable”. Further, the motility / vitality result was “Males barely moved and showed only twitching” in the data set on adult S. mansoni (24 hours, 20 μM); “The trematodes rarely showed slightly twitching movements” with adult S. mansoni (24 hours, 100 μM); “all worms were dead” in the data set with adult S. mansoni (48 hours, 20 μM); “all worms were dead” in the data set on adult S. mansoni (48 hours, 100 μM). In addition, the couples detectable result was “no couples could be detected” in the data set with adult S. mansoni (24 hours, 20 μM, 3 groups of 10 pairs); “no couples could be detected” in the data set with adult S. mansoni (setting [8]); “no couples could be observed in any of the groups” in the data set on adult S. mansoni (setting [9]); “no couples could be observed in any of the groups” in the data set with adult S. mansoni (setting [10]).

`COc1ccc2c(c1)CCC1C2CC[C@@]2(C)C1CC[C@H]2NCc1cc2ccccc2cc1O` (stereo partly drawn) [Compound 41, 17α-[(3-Hydroxy-naphth-2-yl)-methylamino]-3-methoxy-estra-1,3,5(10)-triene]: the values for the IC50 in data set [1] (setting [7]), in data set [1] (setting [5]) and in data set [4] were 1.9 ng/mL, 4.4 nM and 3580 nM, respectively. Moreover, in the data set with adult S. mansoni, the “morphological alterations of the worms” value is on record as “dorsal bending”. Also, the egg production entry in the data set with adult S. mansoni (24 hours, 20 μM) is “Almost no eggs could be detected; also recorded: Almost no eggs were detectable”; in the data set on adult S. mansoni (24 hours, 100 μM), “Almost no eggs could be detected”; in the data set with adult S. mansoni (48 hours, 20 μM) it was “No eggs were produced”; in the data set on adult S. mansoni (48 hours, 100 μM), “No eggs were detectable”. In addition, the motility / vitality result with adult S. mansoni (24 hours, 20 μM) is “Males barely moved and showed only twitching; also recorded: Trematodes moved only slightly and with twitching movements”; in the data set with adult S. mansoni (24 hours, 100 μM), “Males showed almost no motility”; in the data set on adult S. mansoni (48 hours, 20 μM), “Single trematodes showed slightly twitching movements, while the rest was non-motile”; in the data set with adult S. mansoni (48 hours, 100 μM), “Some of the worms were already dead, while others were dying”. Moreover, the couples detectable result is “only in one of the groups a couple was detectable” with adult S. mansoni (setting [8]), “no couples could be observed in any of the groups” in the data set with adult S. mansoni (setting [9]) and “no couples could be observed in any of the groups” with adult S. mansoni (setting [10]).

For the molecule `COc1ccc2c(c1)CCC1C2CC[C@@]2(C)C1C[C@@H](NCc1ccccc1O)[C@@H]2O` (stereo partly drawn) [Compound 43, 16α-(2-Hydroxyphenyl-methylamino)-17β-hydroxy-3-methoxy-estra-1,3,5(10)-triene], the IC50 amounted to 58.5 nM in data set [1] (setting [5]); 23.9 ng/mL in data set [1] (setting [6]); 2 µg/mL (≈ 4.91 µM) in the data set on L929; 1.2 µg/mL (≈ 2.94 µM) in the data set with K562; 7.7 µg/mL (≈ 18.9 µM) in the data set “Cytotoxicity HeLa”.

On to `COc1ccc2c(c1)CCC1C2CC[C@@]2(C)C1C[C@H](NCc1ccccc1O)[C@H]2O` (stereo partly drawn) [Compound 44, 16β-(2-Hydroxyphenyl-methylamino)-17α-hydroxy-3-methoxy-estra-1,3,5(10)-triene], for which the IC50 in data set [1] (setting [5]) amounted to 676 nM; in data set [1] (setting [6]), 275 ng/mL; in the data set with L929 it was 2.5 µg/mL (≈ 6.13 µM); with K562, 0.85 µg/mL (≈ 2.09 µM); in the data set “Cytotoxicity HeLa” it was 3.4 µg/mL (≈ 8.34 µM).

In the case of `COc1ccc2c(c1)CCC1C2CC[C@@]2(C)C1C[C@H](NCc1cc(C(C)(C)C)cc(C(C)(C)C)c1O)[C@H]2O` (stereo partly drawn) [Ref 1, 16β-(2-Hydroxy-3,5-di-tert-butylphenyl-methylamino)-17α-hydroxy-3-methoxy-estra-1,3,5(10)-triene, reference compound], the IC50 turned out to be 1610 nM in data set [1] (setting [5]) and 836 ng/mL in data set [1] (setting [6]).

As to `CCN(CC)CCCC(C)Nc1ccnc2cc(Cl)ccc12` (centres unmarked) [chloroquine, reference compound], the “MSD chloroquine ip 3 × 10 mg/kg” value in data set [3] (ip 3 × 10 mg/kg) came out at 13.6 days.

The record behind these values is patent US9382288B2, “Derivatives of steroid benzylamines, having an antiparasitic antibacterial, antimycotic and/or antiviral action” (Justus-Liebig-Universitat Giessen, priority 2010, dated 2016).
